Several values for one entry are separate records, joined by “and”; a condition that tells them apart may be missing. Identical values can stand only once.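 Each compound was tested at five concentrations against cells in 96-well plates for 48 hours. Here, GI50 denotes the concentration required for 50% inhibition of growth. TGI: concentration producing complete growth inhibition.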
Legend:
Assay in all cases: inhibition of tumour cell growth, NCI panel, 48 h
CCRF-CEM leukemia = system: CCRF-CEM leukemia
HCC-2998 colon = system: HCC-2998 colon
HS 578T breast = system: HS 578T breast
MOLT-4 leukemia = system: MOLT-4 leukemia
NCI/ADR-RES ovarian = system: NCI/ADR-RES ovarian
SF-295 CNS = system: SF-295 CNS
SK-MEL-5 melanoma = system: SK-MEL-5 melanoma
SK-OV-3 ovarian = system: SK-OV-3 ovarian
TK-10 renal = system: TK-10 renal
UO-31 renal = system: UO-31 renal

Row | SMILES | GI50 (CCRF-CEM leukemia) | TGI (CCRF-CEM leukemia) | GI50 (HCC-2998 colon) | TGI (HCC-2998 colon) | GI50 (HS 578T breast) | TGI (HS 578T breast) | GI50 (MOLT-4 leukemia) | TGI (NCI/ADR-RES ovarian) | GI50 (SF-295 CNS) | TGI (SF-295 CNS) | GI50 (SK-MEL-5 melanoma) | TGI (SK-MEL-5 melanoma) | GI50 (SK-OV-3 ovarian) | TGI (SK-OV-3 ovarian) | GI50 (TK-10 renal) | TGI (TK-10 renal) | GI50 (UO-31 renal) | TGI (UO-31 renal) | TGI (MOLT-4 leukemia) | GI50 (NCI/ADR-RES ovarian)
1 | CCC(C)C1NC(=O)C(NC(=O)C(CC(C)C)N(C)C(=O)[C@@H]2CC(O)CN2C(=O)[C@H](C)O)C(C)OC(=O)[C@H](Cc2ccc(OC)cc2)N(C)C(=O)[C@@H]2CCCN2C(=O)[C@H](CC(C)C)NC(=O)C(C)C(=O)[C@H](C(C)C)OC(=O)CC1O (stereo not given in full) | 0.0276 µM | 0.28 µM | < 0.01 µM | 0.637 µM and 0.399 µM | < 0.01 µM | 0.283 µM and 0.0317 µM | 0.0142 µM | > 100 µM | 0.0268 µM | 2.05 µM and 0.388 µM | < 0.01 µM | 0.445 µM and 0.0574 µM | 0.0209 µM | 1.11 µM and 0.404 µM | 0.224 µM | 4.52 µM and 2.05 µM | 0.581 µM | 5.65 µM | – | –
2 | COc1c(B(O)O)cccc1-c1nc2c(F)cc3n[nH]c(C)c3c2c2c1CCCC2 | 0.373 µM | > 50 µM | 2.45 µM | 48.5 µM | 0.118 µM | > 50 µM | 0.272 µM | > 50 µM | 1.28 µM | > 40.6 µM | 0.932 µM | 2.96 µM | 0.666 µM | 4.71 µM | 0.0215 µM | 49.6 µM | 0.225 µM | 3.07 µM | > 50 µM | 1.48 µM
3 | Cc1cc(C)c2c(c1)N(C)c1ncnc(-n3cnc4cc(C)ccc43)c1CC2C (stereo not given) | 2.78 µM | 11.4 µM | 4.05 µM | 61.8 µM | 3 µM | 31 µM | 2.46 µM | 19.5 µM | 2.89 µM | 12 µM | 2.24 µM | 5.34 µM | 4.41 µM | > 100 µM | 7.37 µM | > 100 µM | 2.5 µM | 16.2 µM | 9.57 µM | 3.05 µM
4 | C[C@]12CC[C@@H]3c4ccc(OC(=O)N(CCCl)CCCl)cc4CC[C@H]3[C@@H]1CC[C@@H]2OP(=O)(O)O | 25.7 µM | > 78.7 µM | > 74.4 µM | > 100 µM | 26.7 µM | > 76.9 µM | > 59.3 µM | > 100 µM | 12.5 µM | 32.5 µM | 37.7 µM | > 100 µM | 32.7 µM | > 89.2 µM | > 38.3 µM | > 100 µM | 79.9 µM | > 100 µM | > 100 µM | 49.5 µM
5 | O=C(CN1CCN(C(=O)c2ccco2)CC1)Nc1ccc(Cl)cc1C(=O)c1ccccc1Cl | 5.28 µM | > 100 µM | 14.8 µM | 29.4 µM | 10.8 µM | 33 µM | 2.14 µM | 43.8 µM | 3.13 µM | 15.4 µM | 5.34 µM | 18.6 µM | 16.1 µM | 76.7 µM | 10.2 µM | 36.2 µM | 2.28 µM | 14.9 µM | 5.44 µM | 10 µM
6 | Cc1cnc(-c2ccc(-c3ccc(NC(=O)Nc4c(F)cc(F)cc4F)cc3F)c3c2C(=O)NC3)[nH]1 | – | > 100 µM | 2.01 µM and 1.61 µM | > 100 µM and 11.6 µM | 0.351 µM and 1.07 µM | 5.19 µM and 13.5 µM | 0.0686 µM and 0.212 µM | > 100 µM | – | 18.8 µM and 18.4 µM | 0.852 µM and 2.09 µM | 9.16 µM and 14.1 µM | 1.42 µM and 3.59 µM | 18.3 µM and 23.3 µM | 2.06 µM and 5.43 µM | 7.67 µM and 17.6 µM | 0.594 µM and 1.46 µM | > 100 µM | 13.1 µM and 18.1 µM | > 100 µM
7 | C=CC(=O)N1CCC[C@@H](n2nc(-c3ccc(Oc4ccccc4)cc3)c3c(N)ncnc32)C1 | > 10 µM | > 10 µM | > 10 µM | > 10 µM | > 10 µM | > 10 µM | > 5.29 µM | > 10 µM | > 9.42 µM | > 10 µM | > 10 µM | > 10 µM | 0.0285 µM | > 2.42 µM | 0.0409 µM | 3.14 µM | 1.1 µM | > 10 µM | > 10 µM | > 6.08 µM
8 | Cn1c(=O)c(Oc2ccc(F)cc2F)cc2cnc(NCC(C)(C)O)nc21 | > 25 µM | > 25 µM | > 25 µM | > 25 µM | > 25 µM | > 25 µM | > 25 µM | > 25 µM | > 25 µM | > 25 µM | > 25 µM | > 25 µM | > 25 µM | > 25 µM | > 25 µM | > 25 µM | > 25 µM | > 25 µM | > 25 µM | > 25 µM
9 | Fc1ccc(Nc2nc3nonc3nc2Nc2ccc(I)cc2)cc1 | 0.22 µM | 4.47 µM | 0.425 µM | 9.24 µM | 0.617 µM | 13.6 µM | 0.219 µM | 1.95 µM | 0.214 µM | 0.792 µM | 0.147 µM | 0.325 µM | 0.269 µM | 0.962 µM | 0.315 µM | 2.18 µM | 0.156 µM | 0.858 µM | 0.75 µM | 0.272 µM
10 | COc1cc2c(cc1OCCCN1CCN(C(=S)SCCC(C#N)(c3ccccc3)c3ccccc3)CC1)N=C[C@@H]1CCCN1C2=O | 0.235 µM | 0.537 µM | 1.51 µM | 2.94 µM | 0.56 µM | 3.68 µM | 0.375 µM | > 51.5 µM | 1.11 µM | 3.81 µM | 1.31 µM | 2.75 µM | 2.52 µM | 6.39 µM | 1.09 µM | 2.87 µM | 1.1 µM | 2.32 µM | – | 3.69 µM
11 | CCOc1ccc2c(c1)C(=O)c1c-2n(CCCN=[N+]=[N-])c(=O)c2cc([N+](=O)[O-])ccc12 | 0.442 µM | 2.79 µM | 19.1 µM | > 100 µM | 45.9 µM | > 100 µM | 1.96 µM | > 100 µM | 4.16 µM | 74.4 µM | 1.48 µM | 4.84 µM | 5.9 µM | 36.2 µM | 30.8 µM | > 100 µM | 2.23 µM | 11.5 µM | 20.8 µM | 3.91 µM
12 | O=C(N/N=C/c1ccncc1)c1ccc(F)cc1 | > 40 µM | > 40 µM | > 40 µM | > 40 µM | > 40 µM | > 40 µM | > 40 µM | > 40 µM | > 40 µM | > 40 µM | > 40 µM | > 40 µM | > 40 µM | > 40 µM | > 40 µM | > 40 µM | > 40 µM | > 40 µM | > 40 µM | > 40 µM
13 | CC[C@@H](C)/C=C(C)/C=C/C(=O)c1c(O)c(-c2ccc(O)cc2)cn(OC2CC(=O)CCC(C)OC(=O)CC2O)c1=O (stereo not given in full) | 0.163 µM | 12.6 µM | 2.53 µM | 13.6 µM | 2.36 µM | > 67.2 µM | 0.225 µM | 3.03 µM | 0.331 µM | 4.89 µM | 0.271 µM | 0.978 µM | 0.463 µM | 35.6 µM | 0.442 µM | 19.9 µM | 0.255 µM | 1.92 µM | 12.1 µM | 0.286 µM
14 | Cc1[nH]nc(C(=O)N/N=C/c2ccccc2Cl)c1N=NN(C)C | – | > 100 µM | – | > 100 µM | – | > 61.9 µM | – | > 27.7 µM | – | > 100 µM | – | > 100 µM | – | > 100 µM | – | > 100 µM | – | > 100 µM | > 100 µM | –
15 | COc1cc2c(cc1-c1coc3cc(O)ccc3c1=O)OCO2 | – | > 100 µM | – | > 100 µM | – | 58.2 µM | – | 48.4 µM | – | 38.9 µM | – | > 100 µM | – | 37.3 µM | – | 43.9 µM | – | 58.4 µM | > 100 µM | –
16 | CC(=O)N[C@@H](Cc1ccc(OP(=O)(O)O)cc1)C(=O)N[C@H]1CCC(=O)N2CCC[C@@H](C(=O)NC3CCc4ccccc43)N2C1=O (stereo not given in full) | > 25 µM | > 25 µM | > 25 µM | > 25 µM | > 25 µM | > 25 µM | > 25 µM | > 25 µM | > 25 µM | > 25 µM | > 25 µM | > 25 µM | > 25 µM | > 25 µM | > 25 µM | > 25 µM | > 25 µM | > 25 µM | > 25 µM | > 25 µM
17 | CCCCOC(=O)c1c(C)[nH]c(/C=C2\N=C(c3ccc[nH]3)C=C2OC)c1C | 0.0583 µM | > 20.4 µM | 0.138 µM | 2.06 µM | 0.147 µM | 1.19 µM | 0.138 µM | 2.92 µM | 0.253 µM | 1.32 µM | 0.1 µM | 0.265 µM | 1.45 µM | 14.4 µM | 0.185 µM | 5.07 µM | 0.137 µM | 0.337 µM | 9.85 µM | 0.121 µM
18 | COc1ncc(-c2ccc3nccc(C#CCCCCC(=O)NO)c3c2)cc1NS(=O)(=O)c1ccc(F)cc1F | 0.105 µM | 5.65 µM | 0.0758 µM | 4.26 µM | 0.0307 µM | 1.17 µM | 0.0622 µM | 30 µM | 0.0701 µM | 2.03 µM | 0.0801 µM | 1.34 µM | 0.035 µM | 0.18 µM | 0.0294 µM | 1.37 µM | 0.0737 µM | 4 µM | 1.42 µM | 3.59 µM
19 | Nc1n[nH]c2ccc([C@@H]3Nc4ccc5cn[nH]c5c4[C@H]4C5CCC(C5)[C@@H]34)cc12 (stereo not given in full) | 0.343 µM | > 100 µM | 0.962 µM | > 50.2 µM | 0.389 µM | > 100 µM | 0.446 µM | > 24.1 µM | 0.277 µM | 13.2 µM | 0.355 µM | 3.45 µM | 0.831 µM | > 100 µM | 15.1 µM | > 100 µM | 1 µM | > 100 µM | > 100 µM | 0.887 µM
20 | CC(=O)Nc1cc2c3c(cccc3c1)-c1ccccc1-2 | 0.992 µM | > 100 µM | 18.8 µM | 52.5 µM | 29.3 µM | 94.6 µM | 5.72 µM | > 100 µM | 5.13 µM | 22.6 µM | > 100 µM | > 100 µM | 26.5 µM | 84.3 µM | 18.1 µM | 32.5 µM | 0.356 µM | 15.3 µM | > 100 µM | 26.1 µM
21 | CC(=O)ON=C1C=CC(=C(C#N)c2ccccc2)C=C1 | 0.387 µM | > 100 µM | 11.7 µM | 32.2 µM | 3.51 µM | > 31.3 µM | 2.86 µM | 4.21 µM | 1.83 µM | 12.7 µM | 2.36 µM | 17.7 µM | 6.41 µM | > 100 µM | 2.58 µM | 9.9 µM | 0.576 µM | 15.6 µM | > 100 µM | 0.768 µM

Source: PubChem BioAssay (NCI)
